pIC50: −log10 of the molar value.

The test system of one series is ES2 cells. In words: Annexin V apoptosis flow cytometry, ES2 cells. The format is cell-based, human. To be noted: ES2, 12 hr.
The next series relates to SKOV3 cells. In words: XTT cytotoxicity assay, SKOV3. The class given is cell-based, human. To be noted: Homo sapiens, SK-OV-3; Table 1; XTT assay; read-out: IC50 SKOV3. The source says: The impact of substituents of the aromatic ring on the potency of molecules was also examined. The presence of either an electron withdrawing group (EWG) or an electron donating group (EDG) influences the reactivity of a Michael acceptor towards the target protein but can also impact specificity/selectivity.

Another series is described as follows: in vivo. The format is in vivo, C57BL/6 mice. To be noted: female, C57BL/6, mouse, in vivo; suggested from toxicities at higher dose; read-out: MTD in tumor-bearing animals. On the procedure: To assess therapeutic efficacy the ID8-VegfDefb29 cell line was utilized in a syngeneic mouse model of ovarian cancer expressing luciferase (62). ID8 was first derived from spontaneous malignant transformation of C57BL/6 mouse ovarian surface epithelial cells in vitro (69). ID8-Vegf Defb29 cells represent a more aggressive variant of ovarian cancer in which VEGF provides vascular growth which is augmented by the presence of DEFB29 (62). C57BL/6 mice were injected i.p. with ID8-VegfDefb29 cells stably expressing firefly luciferase (0.5×10^6 cells) in PBS (100 μL). After 72 hrs, mice were imaged for their basal luminescence levels using an IVIS200 imager. Mice with visible luminescence were randomized into equal groups including vehicle (n=8), RA414 (3 mg/Kg, n=8), RA414 (10 mg/Kg, n=8) and treated every three days for up to 3 weeks. Mice were imaged every week to measure bioluminescence expressed by tumor after administration of luciferin. […] On day 24 two mice were sacrificed after collection of ascites, and the remainder required euthanasia on day 31 (FIGS. 17A and 17B). Administration of RA414 at 10 mg/kg (3 doses delivered every three days) regressed the tumor completely in 50% of the mice with less than 10% weight loss. […] This is consistent with proteasome inhibition within the ascites cells by the […] RA414 treatment regimen.
Tumor Studies: Female C57BL6 or Nude mice were inoculated with 10^6 ES2-Luciferase cells i.p. in 100 uL PBC, or ID8-VegfDefb29 syngeneic mouse model of ovarian cancer expressing luciferase (62) i.p. in 100 μL PBS. At day 3, mice were imaged for basal level luminescence activity with a Xenogen IVIS 200 after injection i.p. with luciferin (0.3 mg in 100 water). Mice were randomized into two groups (n=8) and treated i.p. with compounds or vehicle (25% (w/v) β-Hydroxypropylcyclodextrin in water), and imaged again on days 7 and 14. RA375 was administered i.p. at 10 mg/Kg.

The next series concerns DU145. In words: MTT cytotoxicity assay, DU145. To be noted: Homo sapiens, DU-145, read-out: cytotoxicity IC50 DU145.

Description for DU145: Cell lines and cytotoxicity assays: All cell lines were obtained from the American Type Culture Collection (ATCC) and cultured in the specified medium supplemented with 10% fetal bovine serum, 100 IU/mL penicillin, and 100 μg/mL streptomycin at 37° C. in a humidified 5% CO2/95% air incubator. […] To assess drug cytotoxicity, cells were seeded at 2,500 cells/well (10,000 cells/well for MM lines) in 100 μL medium in 96-well plate and after 24 treated with compounds for 72 h, incubated according to the manufacturer's protocol with the Thiazolyl Blue Tetrazolium Bromide (Sigma, M2128) and A570 measured using a Benchmark Plus microplate spectrophotometer (BIO-RAD). IC50 data was analyzed by Graphpad Prism software. In the chirality studies the cells were treated with compounds for 48 h, and the cells were incubated and measured via the preceeding protocols.
Description for ES2 cells: FIG. 7D illustrates surface PS staining of 10^5 ES2 cells treated with compounds for 12 hr and re-suspended in binding buffer and labeled with Annexin V-PE and 7-AAD at RT for 15 min and analyzed by flow cytometry (Becton Dickinson, Mountain View, CA).
FIG. 16D illustrates ES2 cells were treated with compounds at indicated doses for 12 hr then re-suspended in 100 μL binding buffer with 5 μL of Annexin V-PE and 5 μL of 7-AAD to examine early apoptosis. After a 15 min incubation at RT, the cells were analyzed by flow cytometry using a FACSCalibur and CellQuest software.

In the case of `C[C@H]1/C(=C\c2ccc([N+](=O)[O-])cc2)C(=O)/C(=C/c2ccc([N+](=O)[O-])cc2)CN1C(=O)[C@@H](N)Cc1ccccc1`, in the series with ES2 cells, the “surface display of Annexin V versus RA183” value is recorded as “more potently activated a biomarker of early apoptosis”. With `N[C@@H](Cc1ccccc1)C(=O)N1C/C(=C\c2ccc(Cl)c(Cl)c2)C(=O)/C(=C/c2ccc(Cl)c(Cl)c2)C1` [RA190, reference compound], the negative-log IC50 (pIC50) in the series on SKOV3 cells is 7.12. For `CC1/C(=C\c2ccc([N+](=O)[O-])cc2)C(=O)/C(=C/c2ccc([N+](=O)[O-])cc2)CN1C(=O)[C@H](Cc1ccccc1)NC(=O)CCl` (stereo partly shown) [RA414], in the series “in vivo”, the MTD came to 3 mg/kg. Moreover, in the series on DU145, the pIC50 is 7.77.

(Values after patent publication US12673918B2, “Small molecule RPN13 inhibitors with antitumor properties” (The Johns Hopkins University, priority 2019, dated 2026).)
